Data taken from patent US9868748B2, “Thiazolopyrrolidine inhibitors of ROR- γ” (Vitae Pharmaceuticals, Inc., priority 2013, dated 2018).

How the values were obtained:
[1] = target: full-length RORγt in Jurkat cells (Homo sapiens (Human), UniProt P51449); assay: RORγt 5xRORE Assay in Jurkat Cells (Assay 2); format: cell-based; conditions: Nanoluc luciferase reporter, 16-18 hrs, Table 9, read-out: RORγt5X IC50 Range*
Experimental: [formula] RORγt 5xRORE Assay in Jurkat Cells (Assay 2)
Compounds of the present invention were tested for RORγ inverse agonist activity in a cell-based, transcriptional activity assay. Secreted Nanoluc® luciferase was used as a reporter for transcriptional activity of the full-length RORγt in Jurkat cells (ATCC, Cat. # TIB-152). A reporter plasmid was constructed by inserting 5 repeats of the ROR Response Element (RORE) […] (SEQ ID NO:1) into a commercially available promoterless plasmid pNL1.3[secNluc] (Promega, Cat. # N1021) using KpnI and HindIII restriction sites. The expression plasmid for RORγt was purchased (Geneocopoeia, Cat. # EX-T6988-M02). Jurkat cells (30 million cells) were transfected with 11 μg of EX-T6988-MO2 and 26 μg of the reporter plasmid in OptiMEM® media using Lipofectamine® LTX and Plus™ reagents (Life Technologies, Cat. #15338-100). After 5-6 h of incubation at 37° C./5% CO2, the cells were collected, resuspended in phenol-red free RPMI media containing 10% (v/v) delipidated FBS (Hyclone, Cat. # SH30855.03) and dispensed into 96-well clear bottom tissue culture plates (CoStar, Cat. #3603), at 80,000 cells per well. Tested compounds were added to the cells in the same media (final concentration of DMSO was 0.1% (v/v)), and the plates were incubated at 37° C./5% CO2 for 16-18 hrs. Luciferase activity in the conditioned supernatants was determined with NanoGlo® assay reagents (Promega, Cat. # N1130).

[2] = target: recombinant RORγ Ligand Binding Domain (LBD) protein (Homo sapiens (Human), UniProt P51449); assay: Radio-Ligand RORγ Binding Assay (Assay 1); conditions: competition with 25-hydroxy [26,27-3H]-cholesterol, SPA; Table 9; read-out: RORγ Binding Ki Range*
recombinant RORγ Ligand Binding Domain (LBD) protein, sequence (P51449 269-508): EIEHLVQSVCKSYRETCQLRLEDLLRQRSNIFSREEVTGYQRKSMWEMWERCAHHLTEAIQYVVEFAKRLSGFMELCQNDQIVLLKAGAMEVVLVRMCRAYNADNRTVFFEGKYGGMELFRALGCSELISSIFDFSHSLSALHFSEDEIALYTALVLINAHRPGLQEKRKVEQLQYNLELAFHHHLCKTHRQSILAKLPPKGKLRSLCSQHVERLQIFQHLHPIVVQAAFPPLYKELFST
Method in brief: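 Scintillation proximity competition binding of 8.6 nM stock 25-hydroxy[26,27-3H]cholesterol to 24 nM stock 6×His-GST-tagged human RORγ LBD, in 50 mM HEPES pH 7.4 with NaCl, MgCl2, glycerol, CHAPS, β-octylglucopyranoside and DTT, room temperature. Inhibition referenced to DMSO and 10 μM T0901317; IC50 by four-parameter fit, converted to Ki using radioligand concentration and KD.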

full-length RORγt in Jurkat cells, sequence (P51449 other isoform, or with tags, fused parts or gaps): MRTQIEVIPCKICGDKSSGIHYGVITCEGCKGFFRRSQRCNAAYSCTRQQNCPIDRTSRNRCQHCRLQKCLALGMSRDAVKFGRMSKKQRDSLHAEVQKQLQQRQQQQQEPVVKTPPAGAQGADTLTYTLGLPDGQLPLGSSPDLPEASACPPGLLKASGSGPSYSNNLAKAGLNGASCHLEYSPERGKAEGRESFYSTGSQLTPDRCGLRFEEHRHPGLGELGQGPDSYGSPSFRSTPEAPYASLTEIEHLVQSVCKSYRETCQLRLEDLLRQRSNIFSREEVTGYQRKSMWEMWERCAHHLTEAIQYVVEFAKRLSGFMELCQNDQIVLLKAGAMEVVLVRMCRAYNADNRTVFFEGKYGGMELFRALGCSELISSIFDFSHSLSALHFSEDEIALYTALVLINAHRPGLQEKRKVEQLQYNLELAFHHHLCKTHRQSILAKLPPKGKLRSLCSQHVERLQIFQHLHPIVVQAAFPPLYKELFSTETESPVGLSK

| SMILES | IC50 [1] [nM] | Ki [2] [nM] |
| --- | --- | --- |
| CCS(=O)(=O)c1cnc(CC(=O)Nc2nc3c(s2)CN(Cc2ccc(-c4nnn(C)n4)cc2)[C@H]3C(C)C)nc1 | 100 to 1000 | < 100 |
| CC(C)[C@H]1c2nc(NC(=O)Cc3ccc(C#N)cc3)sc2CN1Cc1ccc(C#N)cc1 | 100 to 1000 | < 100 |
| CCS(=O)(=O)c1ccc(CC(=O)Nc2nc3c(s2)CN(c2nccc(C(F)(F)F)n2)[C@H]3C(C)C)cc1 | > 1000 | < 100 |
| CCS(=O)(=O)c1ccc(CC(=O)Nc2nc3c(s2)CN(Cc2ccc(C(F)(F)F)cn2)[C@H]3C(C)C)nc1 | 100 to 1000 | < 100 |
| CCS(=O)(=O)c1ccc(CC(=O)Nc2nc3c(s2)CN(Cc2ccc4c(c2)CCO4)[C@H]3C(C)C)cc1 | > 1000 | < 100 |
| CCS(=O)(=O)c1ccc(CC(=O)Sc2nc3c(s2)CN(Cc2ccc(Cl)cc2)C3(C)C)cc1 | 100 to 1000 | < 100 |
| CCS(=O)(=O)c1ccc(CC(=O)Nc2nc3c(s2)CN(c2nccc(C(F)(F)F)n2)C3(C)C)cc1 | > 1000 | < 100 |
| CC(C)[C@H]1c2nc(C(=O)NCc3ccc(S(C)(=O)=O)cc3)sc2CN1Cc1ccc(F)cc1 | > 1000 | < 100 |
| CC(C)[C@H]1c2nc(C(=O)NCc3ccc(S(C)(=O)=O)cc3)sc2CN1Cc1ccc(C#N)c(F)c1 | 100 to 1000 | < 100 |
| CC(C)[C@H]1c2nc(C(=O)NCc3ccc(S(C)(=O)=O)cc3)sc2CN1Cc1ccc(C(F)(F)F)cc1 | < 100 | < 100 |
| CC(C)[C@H]1c2nc(C(=O)NCc3ccc(S(C)(=O)=O)cc3)sc2CN1Cc1ccc(C#N)cc1F | 100 to 1000 | < 100 |
| CC1(C)c2nc(NC(=O)Cc3ccc(S(C)(=O)=O)cc3)sc2CN1c1nccc(C(F)(F)F)n1 | > 1000 | 100 to 1000 |
| CC(C)[C@H]1c2nc(NC(=O)Cc3ccc(S(C)(=O)=O)cc3)sc2CN1Cc1cnc(C(F)(F)F)nc1 | < 100 | < 100 |
| CC(C)[C@H]1c2nc(NC(=O)Cc3ccc(S(C)(=O)=O)cc3)sc2CN1[C@H](C)c1cnc(Cl)cc1F | 100 to 1000 | < 100 |
| CCS(=O)(=O)c1ccc(CC(=O)Nc2nc3c(s2)CN([C@H](C)Cc2ccccc2)[C@H]3C(C)C)cc1 | > 1000 | < 100 |
| CC[C@H]1c2nc(NC(=O)Cc3ccc(S(=O)(=O)CC)cc3)sc2CN1[C@@H](C)c1ncc(Cl)cc1F | 100 to 1000 | < 100 |
| CCS(=O)(=O)c1ccc(CC(=O)Nc2nc3c(s2)CN([C@@H](C)Cc2ccc(Cl)cc2)[C@H]3C(C)C)cc1 | 100 to 1000 | < 100 |
| CC[C@H]1c2nc(NC(=O)Cc3ccc(S(=O)(=O)CC)cc3)sc2CN1[C@@H](C)Cc1ccccc1 | > 1000 | < 100 |
| CC[C@H]1c2nc(NC(=O)Cc3ccc(S(=O)(=O)CC)cc3)sc2CN1Cc1ncc(Cl)cn1 | < 100 | 100 to 1000 |

| SMILES | IC50 [1] [nM] | Ki [2] [nM] |
| --- | --- | --- |
| CCS(=O)(=O)c1ccc(CC(=O)Nc2nc3c(s2)CN(Cc2ccc(C(N)=O)cc2)[C@H]3C(C)C)cc1 | < 100 | < 100 |
| CCS(=O)(=O)c1ccc(CC(=O)Nc2nc3c(s2)CN(Cc2ccc(C(=O)O)cc2)[C@H]3C(C)C)cc1 | 100 to 1000 | < 100 |
| CC[C@H](C)C1c2nc(C(=O)NCc3ccc(S(C)(=O)=O)cc3)sc2CN1Cc1ccc(OC(F)F)cc1 (stereo partly drawn) | 100 to 1000 | < 100 |
| CCS(=O)(=O)c1ccc(CC(=O)Nc2nc3c(s2)CN(Cc2ccn(C)c(=O)c2)[C@H]3C(C)C)cc1 | > 1000 | 100 to 1000 |
| CC(C)[C@H]1c2nc(NC(=O)Cc3ccc(S(C)(=O)=O)cc3)sc2CN1Cc1ccn(C)c(=O)c1 | > 1000 | 100 to 1000 |
| CC1(C)c2nc(NC(=O)Cc3ccc(S(C)(=O)=O)cc3)sc2CN1Cc1ccc(Cl)cc1 | > 1000 | 100 to 1000 |
| CCS(=O)(=O)c1ccc(CC(=O)Nc2nc3c(s2)CN(Cc2ccc(F)cc2F)[C@H]3C(C)C)cc1 | > 1000 | < 100 |
| CCS(=O)(=O)c1ccc(CC(=O)Nc2nc3c(s2)CN(c2cnc(C(F)(F)F)cn2)[C@H]3C(C)C)cc1 | > 1000 | < 100 |
| CCS(=O)(=O)c1ccc(CC(=O)Nc2nc3c(s2)CN(c2ncc(Cl)c(C)n2)[C@H]3C(C)C)cc1 | > 1000 | < 100 |
| CC[C@H]1c2nc(NC(=O)Cc3ccc(F)cc3)sc2CN1Cc1ccc(Cl)cc1 | 100 to 1000 | < 100 |
| CC(C)[C@H]1c2nc(NC(=O)Cc3ccc(S(C)(=O)=O)cc3)sc2CN1Cc1ccc(F)cc1 | > 1000 | < 100 |
| CCS(=O)(=O)c1ccc(CC(=O)Nc2nc3c(s2)CN(Cc2ccc(F)c(F)c2)[C@H]3C(C)C)cc1 | > 1000 | < 100 |
| CCS(=O)(=O)c1ccc(CC(=O)Nc2nc3c(s2)CN(Cc2ccc(Br)cc2)[C@H]3C(C)C)cc1 | < 100 | < 100 |
| CC(C)[C@H]1c2nc(C(=O)NCc3ccc(S(C)(=O)=O)cc3)sc2CN1Cc1ccc(C#N)cc1 | 100 to 1000 | < 100 |
| CCS(=O)(=O)c1ccc(CC(=O)Nc2nc3c(s2)CN(Cc2ccc(C#N)cc2)[C@@H]3C(C)(C)C)cc1 | 100 to 1000 | < 100 |
| CCOc1ccc(CN2Cc3sc(NC(=O)Cc4ccc(S(=O)(=O)CC)cc4)nc3[C@H]2CC)cc1 | 100 to 1000 | < 100 |
| CCS(=O)(=O)c1ccc(CC(=O)Nc2nc3c(s2)CN([C@H](C)Cc2ccccc2C(F)(F)F)[C@@H]3C(C)C)cc1 | > 1000 | < 100 |
| CC[C@@H]1c2nc(NC(=O)Cc3ccc(S(=O)(=O)CC)cc3)sc2CN1Cc1ccc2c(c1)OCO2 | > 1000 | < 100 |
| CCS(=O)(=O)c1ccc(CC(=O)Nc2nc3c(s2)CN(Cc2ccc(C(F)(F)F)c(F)c2)[C@@H]3C(C)C)cc1 | 100 to 1000 | < 100 |

| SMILES | IC50 [1] [nM] | Ki [2] [nM] |
| --- | --- | --- |
| CC[C@@H]1c2nc(NC(=O)Cc3ccc(S(=O)(=O)CC)cc3)sc2CN1Cc1ccc(OC(C)C)cc1 | > 1000 | < 100 |
| CCc1ccc(CN2Cc3sc(NC(=O)Cc4ccc(S(C)(=O)=O)cc4)nc3[C@H]2C(C)C)cc1 | > 1000 | < 100 |
| CCS(=O)(=O)c1ccc(CC(=O)Nc2nc3c(s2)CN([C@@H](C)Cc2ccccc2C(F)(F)F)[C@@H]3C(C)C)cc1 | > 1000 | < 100 |
| CCS(=O)(=O)c1ccc(CC(=O)Nc2nc3c(s2)CN([C@H](C)Cc2ccccc2)[C@@H]3C(C)C)cc1 | > 1000 | < 100 |
| CCS(=O)(=O)c1ccc(CC(=O)Nc2nc3c(s2)CN([C@H](C)Cc2ccc(F)cc2)[C@@H]3C(C)C)cc1 | > 1000 | < 100 |
| CC[C@@H]1c2nc(NC(=O)Cc3ccc(S(=O)(=O)CC)cc3)sc2CN1Cc1ccc(Cl)cc1 | > 1000 | < 100 |
| CCS(=O)(=O)c1ccc(CC(=O)Nc2nc3c(s2)CN(Cc2ccc(OC(F)F)cc2)[C@@H]3C(C)C)cc1 | > 1000 | < 100 |
| CC[C@@H](C)[C@@H]1c2nc(NC(=O)Cc3ccc(S(C)(=O)=O)cc3)sc2CN1Cc1ccc(OC(F)(F)F)cc1 | 100 to 1000 | 100 to 1000 |
| CC(C)[C@@H]1c2nc(NC(=O)Cc3ccc(S(C)(=O)=O)cc3)sc2CN1Cc1ccc(C(F)(F)F)cc1F | 100 to 1000 | 100 to 1000 |
| CC(C)[C@@H]1c2nc(NC(=O)Cc3ccc(S(C)(=O)=O)cc3)sc2CN1Cc1ccc(OC(F)(F)F)cc1 | > 1000 | 100 to 1000 |
| CC(C)c1ccc(CN2Cc3sc(NC(=O)Cc4ccc(S(C)(=O)=O)cc4)nc3[C@H]2C(C)C)cc1 | > 1000 | < 100 |
| CCS(=O)(=O)c1ccc(CC(=O)Nc2nc3c(s2)CN(Cc2cccc(C4CC4)c2)[C@@H]3C(C)C)cc1 | > 1000 | < 100 |
| CCS(=O)(=O)c1ccc(CC(=O)Nc2nc3c(s2)CN(Cc2ccnc(C(F)(F)F)c2)[C@@H]3C(C)C)cc1 | > 1000 | 100 to 1000 |
| CCS(=O)(=O)c1ccc(CC(=O)Nc2nc3c(s2)CN(Cc2ccc(C#N)c(F)c2)[C@@H]3C(C)C)cc1 | 100 to 1000 | 100 to 1000 |
| CC(C)[C@@H]1c2nc(NC(=O)Cc3ccc(S(C)(=O)=O)cc3)sc2CN1Cc1cccc(C#N)c1 | > 1000 | 100 to 1000 |
| CC(C)[C@@H]1c2nc(NC(=O)Cc3ccc(S(C)(=O)=O)cc3)sc2CN1Cc1cccc(Br)c1 | > 1000 | < 100 |
| CC(C)[C@@H]1c2nc(NC(=O)Cc3ccc(S(C)(=O)=O)cc3)sc2CN1Cc1cccc(Cl)c1 | > 1000 | < 100 |
| CC(C)[C@@H]1c2nc(NC(=O)Cc3ccc(S(C)(=O)=O)cc3)sc2CN1Cc1cccc(F)c1 | > 1000 | < 100 |
| CC(C)[C@@H]1c2nc(NC(=O)Cc3ccc(S(C)(=O)=O)cc3)sc2CN1Cc1ccc(Cl)cc1 | 100 to 1000 | 100 to 1000 |
